The supplement of paper PMC12205070

Key:
Experiment in all cases: normalised number of viable cells after treatment (fraction of control); higher = more viable cells (less drug effect)
[1] = test system: P8 Relapse (T-ALL xenograft cells from relapse)
Protocol: (§1)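 T-ALL PDX-derived cells (initial diagnosis or relapse samples of individual patients) co-cultured on hTERT-immortalized bone marrow MSCs in 384-well plates were treated with Cytarabine, Venetoclax, S-63845, A1331852 or FX1 (0.1 nM to 10,000 nM) for 72 h.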

[2] = test system: P3 Initial (T-ALL xenograft cells from diagnosis)
Protocol: as §1

[3] = test system: P1 Initial (T-ALL xenograft cells from diagnosis)
Protocol: as §1

[4] = test system: P6 Relapse (T-ALL xenograft cells from relapse)
Protocol: as §1

[5] = test system: P10 Relapse (T-ALL xenograft cells from relapse)
Protocol: as §1

[6] = test system: P3 Relapse (T-ALL xenograft cells from relapse)
Protocol: as §1

[7] = test system: P12 Relapse (T-ALL xenograft cells from relapse)
Protocol: as §1

[8] = test system: P12 Initial (T-ALL xenograft cells from diagnosis)
Protocol: as §1

[9] = test system: P1 Relapse (T-ALL xenograft cells from relapse)
Protocol: as §1

[10] = test system: P10 Initial (T-ALL xenograft cells from diagnosis)
Protocol: as §1

[11] = test system: P2 Initial (T-ALL xenograft cells from diagnosis)
Protocol: as §1

[12] = test system: P8 Initial (T-ALL xenograft cells from diagnosis)
Protocol: as §1

[13] = test system: P2 Relapse (T-ALL xenograft cells from relapse)
Protocol: as §1

[14] = test system: P6 Initial (T-ALL xenograft cells from diagnosis)
Protocol: as §1

Nc1ccn([C@@H]2O[C@H](CO)[C@@H](O)[C@@H]2O)c(=O)n1 [Cytarabine]
Settings	normalised number of viable cells
[1], 0.998752 nM	1.551
[1], 9.98752 nM	1.57
[1], 99.8752 nM	0.744
[1], 998.752 nM	0.821
[1], 9987.52 nM	0.599
[2], 0.998752 nM	1.04
[2], 9.98752 nM	0.855
[2], 99.8752 nM	0.14
[2], 998.752 nM	0.0925
[2], 9987.52 nM	0.0805
[3], 0.125 nM	0.988
[3], 1 nM	0.83
[3], 12.5 nM	0.396
[3], 100 nM	0.245
[3], 1250 nM	0.23
[3], 10000 nM	0.0865
[4], 0.998752 nM	0.745
[4], 9.98752 nM	1.28
[4], 99.8752 nM	1.18
[4], 998.752 nM	0.902
[4], 9987.52 nM	0.852
[5], 0.998752 nM	1.08
[5], 9.98752 nM	1
[5], 99.8752 nM	0.737
[5], 998.752 nM	0.712
[5], 9987.52 nM	0.679
[6], 0.998752 nM	1.14
[6], 9.98752 nM	0.684
[6], 99.8752 nM	0.464
[6], 998.752 nM	0.306
[6], 9987.52 nM	0.143
[7], 0.998752 nM	4.13
[7], 9.98752 nM	5.01
[7], 99.8752 nM	1.49
[7], 998.752 nM	0.76
[7], 9987.52 nM	0.446
[8], 0.998752 nM	1.33
[8], 9.98752 nM	1.2
[8], 99.8752 nM	0.327
[8], 998.752 nM	0.313
[8], 9987.52 nM	0.593
[9], 0.125 nM	0.84
[9], 1 nM	0.683
[9], 12.5 nM	0.426
[9], 100 nM	0.354
[9], 1250 nM	0.235
[9], 10000 nM	0.224
[10], 0.998752 nM	1.45
[10], 9.98752 nM	1.4
[10], 99.8752 nM	0.472
[10], 998.752 nM	0.426
[10], 9987.52 nM	0.427
[11], 0.998752 nM	1.83
[11], 9.98752 nM	1.97
[11], 99.8752 nM	0.894
[11], 998.752 nM	0.683
[11], 9987.52 nM	0.631
[12], 0.998752 nM	1.67
[12], 9.98752 nM	1.54
[12], 99.8752 nM	0.489
[12], 998.752 nM	0.4715
[12], 9987.52 nM	0.577
[13], 0.998752 nM	0.981
[13], 9.98752 nM	0.99
[13], 99.8752 nM	0.973
[13], 998.752 nM	0.804
[13], 9987.52 nM	0.61
[14], 0.998752 nM	0.95
[14], 9.98752 nM	0.6575
[14], 99.8752 nM	0.454
[14], 998.752 nM	0.248
[14], 9987.52 nM	0.239
